Activity, inhibition and IC50 data for two molecules are collected here from ChEMBL document CHEMBL6103554, “Neratinib derivative 7A induces apoptosis in colon cancer cells via the p53 pathway” (Bioorg Med Chem Lett, 2025).

Calls of active or inactive are those of the source. The rule behind the calls is not given here.

The test system of assay [1] is HCT-116. Nature of the assay: Induction of DNA damage in human HCT-116 cells assessed as upregulation of p53 level at 10 uM incubated for 24 hrs by immunofluorescence based analysis. The assay is classed as functional, cell-based.
The subject of assay [2] is HCT-116. The assay is described as follows: Inhibition of cell adhesion in human HCT-116 cells at 10 uM. The class given is functional, cell-based.
Assay [3] has as its target Cellular tumor antigen p53 (Homo sapiens) (UniProt P04637). The assay is described as follows: Activation of p53 signaling pathway in human HCT-116 cells by GSEA analysis. The class given is cell-based. The following applies: filed as activator.
For a further assay, the system named is A498. Nature of the assay: Cytotoxicity against human A498 cells assessed as inhibition rate incubated for 48 hrs by MTT. The assay is classed as functional, cell-based. The following applies: A498, 48 h.
Assay [4] relates to HCT-116. Nature of the assay: Activation of TNFR-mediated TNF signaling pathway in human HCT-116 cells by GSEA analysis. To be noted: filed as activator. The assay is classed as cell-based.
Assay [5] relates to HCT-116. The assay is described as follows: Induction of DNA damage in human HCT-116 cells assessed as upregulation of p53 level at 5 uM incubated for 24 hrs by immunofluorescence based analysis. The assay is classed as functional, cell-based.
Assay [6] concerns HCT-116. Nature of the assay: Induction of DNA damage in human HCT-116 cells assessed as upregulation of p21 level incubated for 24 hrs by PCR analysis. The class given is functional, cell-based. To be noted: dose 2.5-10 µM.
Assay [7] has as its system HCT-116. Nature of the assay: Induction of DNA damage in human HCT-116 cells assessed as upregulation of gamma-H2AX level incubated for 24 hrs by immunoblotting analysis. The assay is classed as functional, cell-based. To be noted: dose 2.5-10 µM.
For assay [8], the system named is HCT-116. Nature of the assay: Induction of DNA damage in human HCT-116 cells assessed as upregulation of gamma-H2AX level at 10 uM by immunoblotting analysis. The assay is classed as functional, cell-based. A general note: A western blot detects proteins with antibodies after separation by electrophoresis.
Assay [9] has as its system HCT-116. The assay is described as follows: Inhibition of cell invasion in human HCT-116 cells at 5 uM by Transwell assay. The assay is classed as functional, cell-based.
In assay [10] the test system is HCT-116. Nature of the assay: Induction of DNA damage in human HCT-116 cells assessed as downregulation of BCL2 level at 10 uM incubated for 24 hrs by immunoblotting analysis. The assay is classed as functional, cell-based.
The subject of assay [11] is HCT-116. The assay is described as follows: Antitumor activity against human HCT116 cells xenografted in chick embryo chorioallantoic membrane assessed as reduction in angiogenesis by CAM assay. The assay is classed as functional, cell-based. To be noted: dose 5-10 µM. In general terms: In xenograft studies the graft and the host belong to different species.
Assay [12] relates to HCT-116. Nature of the assay: Inhibition of cell migration in human HCT-116 cells assessed as repair capacity at 5 to 10 uM measured upto 48 hrs by scratch assay. The assay is classed as functional, cell-based. The following applies: dose 5-10 µM.
Assay [13] deals with HCT-116. The assay is described as follows: Cytotoxicity against human HCT-116 cells assessed as inhibition rate incubated for 48 hrs by MTT. The class given is functional, cell-based. To be noted: HCT-116, 48 h.
The test system of the next assay is MDA-MB-231. The assay is described as follows: Cytotoxicity against human MDA-MB-231 cells assessed as inhibition rate incubated for 48 hrs by MTT. The following applies: MDA-MB-231, 48 h. The class given is functional, cell-based.
Assay [14] relates to HCT-116. The assay is described as follows: Antitumor activity against human HCT116 cells xenografted in chick embryo chorioallantoic membrane assessed as reduction in tumor volume by CAM assay. The class given is functional, cell-based. The following applies: dose 5-10 µM.
In assay [15] the test system is HCT-116. The assay is described as follows: Inhibition of cell proliferation in human HCT-116 cells at 10 uM by colony formation assay relative to control. The assay is classed as functional, cell-based.
Assay [16] deals with HCT-116. Nature of the assay: Inhibition of cell adhesion in human HCT-116 cells at 5 uM. The assay is classed as functional, cell-based.
Assay [17] concerns HCT-116. Nature of the assay: Induction of DNA damage in human HCT-116 cells assessed as upregulation of BAX level at 10 uM incubated for 24 hrs by immunoblotting analysis. The assay is classed as functional, cell-based.
Assay [18] deals with HCT-116. The assay is described as follows: Induction of DNA damage in human HCT-116 cells assessed as upregulation of p53 level at 10 uM incubated for 24 hrs by immunoblotting analysis. The assay is classed as functional, cell-based.
A further assay relates to HeLa. Nature of the assay: Cytotoxicity against human HeLa cells assessed as inhibition rate incubated for 48 hrs by MTT. The assay is classed as functional, cell-based.

Cellular tumor antigen p53 (Homo sapiens), sequence (P04637 whole entry, looked up): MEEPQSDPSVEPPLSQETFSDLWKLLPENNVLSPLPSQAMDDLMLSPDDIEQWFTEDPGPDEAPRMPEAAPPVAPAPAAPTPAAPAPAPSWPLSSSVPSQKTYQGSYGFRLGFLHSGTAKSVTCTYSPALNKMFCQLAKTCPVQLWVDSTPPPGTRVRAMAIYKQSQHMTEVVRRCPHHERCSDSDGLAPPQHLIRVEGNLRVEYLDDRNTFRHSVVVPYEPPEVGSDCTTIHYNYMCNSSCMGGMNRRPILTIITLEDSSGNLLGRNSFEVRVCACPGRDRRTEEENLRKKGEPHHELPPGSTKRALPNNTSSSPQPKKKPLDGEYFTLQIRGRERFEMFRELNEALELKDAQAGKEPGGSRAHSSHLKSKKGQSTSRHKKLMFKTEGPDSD

What is called IC50 is the concentration that inhibits the measured activity by half. `O=C(Nc1ccc(OCc2ccccn2)c(Cl)c1)c1ccc(CN2CCN(C(=O)C3CC3)CC2)cc1`: the result (in the assay with HCT-116 [1]; in [3]; with HCT-116 [4]; in the assay on HCT-116 [5]; in the assay on HCT-116 [10]; in the assay on HCT-116 [17]) was Active. Moreover, the result in the assay on HCT-116 [18] was Active. Moreover, the inhibition result in the assay with HCT-116 [2], with HCT-116 [9] and in the assay with HCT-116 [16] was “Active” each time. For the same molecule, the IC50 in the assay on A498 came out at 18.5 µM; in the assay on HCT-116 [13] it was 7.21 µM; with MDA-MB-231, 17.8 µM; in the assay on HeLa it was 13.5 µM. For the same molecule, the Activity entry with HCT-116 [6] is “Dose-dependent-effect”; with HCT-116 [7], “Dose-dependent-effect”; in the assay on HCT-116 [8], “Time-dependent-effect”; in the assay on HCT-116 [11], “Dose-dependent-effect”; in the assay with HCT-116 [12], “Dose-dependent-effect; Stronger Inhibition”; in the assay on HCT-116 [14], “Dose-dependent-effect”. Besides, the inhibition entry with HCT-116 [15] is recorded as “Active; Significantly Decreased Colony Formation”.
Regarding `CCOc1cc2ncc(C#N)c(Nc3ccc(OCc4ccccn4)c(Cl)c3)c2cc1NC(=O)/C=C/CN(C)C` [NERATINIB], the inhibition result in the assay with HCT-116 [2] and in the assay with HCT-116 [15] was “Active” in each case. In addition, the IC50 was 19.5 µM in the assay on A498, 17.3 µM in the assay with HCT-116 [13], 27.7 µM with MDA-MB-231 and 18.2 µM in the assay with HeLa. For the same molecule, the outcome in the assay on HCT-116 [12] was Active.
